For this test, the system named is SCI pain. Conditions: in vivo.

Turning to `NCC1(CC(=O)O)CCCCC1` [gabapentin], the “place preference in GFP (control AAV) SCI animals” value was “induced place preference”.
